SMILES strings stand for the structures. Where a name gives a salt, the structure may show the parent alone.

Chain of PI3Kδ (p110δ/p85α) (O00329 whole entry): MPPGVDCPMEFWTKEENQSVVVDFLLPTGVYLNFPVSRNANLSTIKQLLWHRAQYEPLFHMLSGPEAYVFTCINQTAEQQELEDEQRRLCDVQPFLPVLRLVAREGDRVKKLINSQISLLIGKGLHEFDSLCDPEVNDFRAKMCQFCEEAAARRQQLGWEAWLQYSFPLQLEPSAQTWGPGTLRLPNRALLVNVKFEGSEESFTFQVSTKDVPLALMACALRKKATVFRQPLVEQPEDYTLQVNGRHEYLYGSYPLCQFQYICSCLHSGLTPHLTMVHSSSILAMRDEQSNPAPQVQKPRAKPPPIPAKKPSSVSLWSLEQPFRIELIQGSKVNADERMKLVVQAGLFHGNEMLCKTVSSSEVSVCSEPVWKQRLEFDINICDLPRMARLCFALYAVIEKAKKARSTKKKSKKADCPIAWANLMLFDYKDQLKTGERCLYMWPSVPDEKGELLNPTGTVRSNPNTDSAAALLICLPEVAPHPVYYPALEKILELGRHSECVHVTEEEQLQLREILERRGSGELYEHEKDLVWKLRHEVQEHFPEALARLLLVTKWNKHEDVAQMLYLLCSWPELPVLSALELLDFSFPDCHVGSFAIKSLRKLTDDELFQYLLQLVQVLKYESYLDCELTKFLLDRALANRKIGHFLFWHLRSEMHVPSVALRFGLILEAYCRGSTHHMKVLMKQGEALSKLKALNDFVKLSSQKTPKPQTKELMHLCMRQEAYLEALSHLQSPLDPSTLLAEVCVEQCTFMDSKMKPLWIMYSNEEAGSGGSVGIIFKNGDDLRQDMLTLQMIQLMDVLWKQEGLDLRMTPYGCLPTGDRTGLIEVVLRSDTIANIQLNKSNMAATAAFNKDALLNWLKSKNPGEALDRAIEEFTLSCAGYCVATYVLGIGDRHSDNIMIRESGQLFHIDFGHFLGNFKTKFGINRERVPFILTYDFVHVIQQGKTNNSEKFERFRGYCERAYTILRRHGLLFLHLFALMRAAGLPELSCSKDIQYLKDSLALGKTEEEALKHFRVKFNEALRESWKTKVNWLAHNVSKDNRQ
Chain of PI3Kδ (p110δ/p85α) (P27986 whole entry partner): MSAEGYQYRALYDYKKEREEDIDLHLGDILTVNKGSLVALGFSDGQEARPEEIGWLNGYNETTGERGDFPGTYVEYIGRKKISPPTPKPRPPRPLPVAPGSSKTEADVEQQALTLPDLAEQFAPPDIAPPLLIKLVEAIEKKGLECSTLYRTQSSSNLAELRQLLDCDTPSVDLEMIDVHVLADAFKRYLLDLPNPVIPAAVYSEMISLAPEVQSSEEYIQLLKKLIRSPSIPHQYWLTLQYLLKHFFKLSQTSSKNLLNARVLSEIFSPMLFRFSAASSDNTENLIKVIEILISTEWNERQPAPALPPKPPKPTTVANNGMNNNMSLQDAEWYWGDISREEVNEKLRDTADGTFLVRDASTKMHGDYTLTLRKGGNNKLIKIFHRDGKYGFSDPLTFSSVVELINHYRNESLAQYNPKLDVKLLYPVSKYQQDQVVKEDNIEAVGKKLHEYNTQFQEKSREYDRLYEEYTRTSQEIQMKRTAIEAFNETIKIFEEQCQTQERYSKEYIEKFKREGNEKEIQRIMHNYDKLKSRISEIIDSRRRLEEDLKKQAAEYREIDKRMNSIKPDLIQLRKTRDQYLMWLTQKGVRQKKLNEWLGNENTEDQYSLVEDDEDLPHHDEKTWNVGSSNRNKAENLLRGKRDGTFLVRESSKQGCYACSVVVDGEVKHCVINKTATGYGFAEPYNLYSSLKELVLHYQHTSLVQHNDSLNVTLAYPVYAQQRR

This experiment deals with PI3Kδ (p110δ/p85α) (Homo sapiens (Human), UniProt O00329). Nature of the experiment: PI3Kδ scintillation proximity assay (Example A3). The class given is biochemical. Particulars: 20 μM ATP, 20 μM PIP2, 4 nM PI3Kδ; read-out: PI3Kδ SPA IC50. The method, then:
[γ-^33P]ATP (10 mCi/mL) was purchased from Perkin-Elmer (Waltham, Mass.). […] PI3Kδ (p110δ/p85α) was purchased from Millipore (Bedford, Mass.). ATP, MgCl2, DTT, EDTA, MOPS and CHAPS were purchased from Sigma-Aldrich (St. Louis, Mo.). Wheat Germ Agglutinin (WGA) YSi SPA Scintillation Beads was purchased from GE healthcare life sciences (Piscataway, N.J.).
The kinase reaction was conducted in polystyrene 384-well matrix white plate from Thermo Fisher Scientific in a final volume of 25 μL. Inhibitors were first diluted serially in DMSO and added to the plate wells before the addition of other reaction components. The final concentration of DMSO in the assay was 0.5%. The PI3K assays were carried out at room temperature in 20 mM MOPS, pH 6.7, 10 mM MgCl2, 5 mM DTT and CHAPS 0.03%. Reactions were initiated by the addition of ATP, the final reaction mixture consisted of 20 μM PIP2, 20 μM ATP, 0.2 μCi [γ-^33P]ATP, 4 nM PI3Kδ. […] 25 mM EDTA, 400 μM ATP. The final concentration of SPA beads was 1.0 mg/mL. After the plate sealing, plates were shaken overnight at room temperature and centrifuged at 1800 rpm for 10 minutes, the radioactivity of the product was determined by scintillation counting on Topcount (Perkin-Elmer). IC50 determination was performed by fitting the curve of percent control activity versus the log of the inhibitor concentration using the GraphPad Prism 3.0 software.
As a reminder, the IC50 is the concentration that gives 50% inhibition. Turning to `CCOc1c(C(C)n2nc(C(F)F)c3c(N)ncnc32)cc(Cl)c(F)c1C1CN(CC(C)(C)O)C1` (racemic) [Example 153, 1-[3-(3-{1-[4-Amino-3-(difluoromethyl)-1H-pyrazolo[3,4-d]pyrimidin-1-yl]ethyl}-5-chloro-2-ethoxy-6-fluorophenyl)azetidin-1-yl]-2-methylpropan-2-ol], the IC50 is at most 0.01 µM.
Turning to `CCOc1c(C(C)n2nc(C)c3c(N)ncnc32)cc(Cl)c(C#N)c1-c1ccc(-c2nnn(C)n2)nc1` (racemic) [Example 336, 4-[1-(4-amino-3-methyl-1H-pyrazolo[3,4-d]pyrimidin-1-yl)ethyl]-6-chloro-3-ethoxy-2-[6-(2-methyl-2H-tetrazol-5-yl)pyridin-3-yl]benzonitrile], the 50% inhibitory concentration (IC50) was at most 0.01 µM.
To `CCOc1c(C(C)n2nc(C)c3c(N)ncnc32)cc(Cl)c(C#N)c1N1CC(COC)C1` (racemic) [Example 341, 4-[1-(4-amino-3-methyl-1H-pyrazolo[3,4-d]pyrimidin-1-yl)ethyl]-6-chloro-3-ethoxy-2-[3-(methoxymethyl)azetidin-1-yl]benzonitrile] belongs at most 0.01 µM; to `COc1c(C(C)n2nc(C)c3c(N)ncnc32)cc(Cl)c(C)c1-c1cnn(CCO)c1` (single isomer, unassigned) [20 (1st peak), 2-(4-(3-(1-(4-Amino-3-methyl-1H-pyrazolo[3,4-d]pyrimidin-1-yl)ethyl)-5-chloro-2-methoxy-6-methylphenyl)-1H-pyrazol-1-yl)ethanol], at most 0.01 µM; to `COc1c(C(C)n2nc(C)c3c(N)ncnc32)cc(Cl)c(C)c1-c1cnn(CCO)c1` (single isomer, unassigned) [20 (2nd peak), 2-(4-(3-(1-(4-Amino-3-methyl-1H-pyrazolo[3,4-d]pyrimidin-1-yl)ethyl)-5-chloro-2-methoxy-6-methylphenyl)-1H-pyrazol-1-yl)ethanol], 0.05 to 0.2 µM.
In the case of `COc1c(C(C)n2ccc(=O)c3c(N)ncnc32)cc(Cl)c(C)c1-c1ccc(C(=O)N(C)C)nc1` (single isomer, unassigned) [25 (1st peak), 5-{3-[1-(4-Amino-5-oxopyrido[2,3-d]pyrimidin-8(5H)-yl)ethyl]-5-chloro-2-methoxy-6-methylphenyl}-N,N-dimethylpyridine-2-carboxamide], the half-maximal inhibitory concentration (IC50) is 0.2 to 0.5 µM.
In the case of `COc1c(C(C)n2ccc(=O)c3c(N)ncnc32)cc(Cl)c(C)c1-c1ccc(C(=O)N(C)C)nc1` (single isomer, unassigned) [25 (2nd peak), 5-{3-[1-(4-Amino-5-oxopyrido[2,3-d]pyrimidin-8(5H)-yl)ethyl]-5-chloro-2-methoxy-6-methylphenyl}-N,N-dimethylpyridine-2-carboxamide], the IC50 is at most 0.01 µM.
As to `COc1c(C(C)n2nc(C)c3c(N)ncnc32)cc(Cl)c(F)c1C1CN(C[C@H](C)O)C1` (single isomer, unassigned) [68 (1st peak)], the IC50 was at most 0.01 µM.
Regarding `COc1c(C(C)n2nc(C)c3c(N)ncnc32)cc(Cl)c(C#N)c1-c1ccc(C(=O)N(C)C)nc1` (single isomer, unassigned) [313 (2nd peak), 5-{3-[1-(4-amino-3-methyl-1H-pyrazolo[3,4-d]pyrimidin-1-yl)ethyl]-5-chloro-6-cyano-2-methoxyphenyl}-N,N-dimethylpyridine-2-carboxamide], the half-maximal inhibitory concentration (IC50) was at most 0.01 µM.
With `CCOc1c(C(C)n2nc(C)c3c(N)ncnc32)cc(C)c(C#N)c1-c1ccc(C(=O)N(C)C)nc1` (single isomer, unassigned) [314 (2nd peak), 5-{3-[1-(4-amino-3-methyl-1H-pyrazolo[3,4-d]pyrimidin-1-yl)ethyl]-6-cyano-2-ethoxy-5-methylphenyl}-N,N-dimethylpyridine-2-carboxamide], the 50% inhibitory concentration (IC50) was at most 0.01 µM.
For the compound `CCOc1c(C(C)n2nc(C)c3c(N)ncnc32)cc(Cl)c(C#N)c1C1CNC(=O)O1` (single isomer, unassigned) [323 (1st peak), 4-[1-(4-amino-3-methyl-1H-pyrazolo[3,4-d]pyrimidin-1-yl)ethyl]-6-chloro-3-ethoxy-2-(2-oxo-1,3-oxazolidin-5-yl)benzonitrile], the IC50 is at most 0.01 µM.
As to `CCOc1c(C(C)n2nc(C)c3c(N)ncnc32)cc(Cl)c(C#N)c1C1CNC(=O)O1` (single isomer, unassigned) [323 (3rd peak), 4-[1-(4-amino-3-methyl-1H-pyrazolo[3,4-d]pyrimidin-1-yl)ethyl]-6-chloro-3-ethoxy-2-(2-oxo-1,3-oxazolidin-5-yl)benzonitrile], the half-maximal inhibitory concentration (IC50) fell in the range of 0.05 to 0.2 µM.
`CCOc1c(C(C)n2nc(C)c3c(N)ncnc32)cc(Cl)c(C#N)c1C1CNC(=O)O1` (single isomer, unassigned) [323 (4th peak), 4-[1-(4-amino-3-methyl-1H-pyrazolo[3,4-d]pyrimidin-1-yl)ethyl]-6-chloro-3-ethoxy-2-(2-oxo-1,3-oxazolidin-5-yl)benzonitrile]: the IC50 is at most 0.01 µM.
Then `COc1c(C(C)n2nc(C)c3c(N)ncnc32)cc(Cl)c(C)c1C1CNC(=O)CO1` (single isomer, unassigned) [324 (1st peak), 6-{3-[1-(4-Amino-3-methyl-1H-pyrazolo[3,4-d]pyrimidin-1-yl)ethyl]-5-chloro-2-methoxy-6-methylphenyl}morpholin-3-one], with 0.05 to 0.2 µM.
Turning to `COc1c(C(C)n2nc(C)c3c(N)ncnc32)cc(Cl)c(C)c1C1CNC(=O)CO1` (single isomer, unassigned) [324 (2nd peak), 6-{3-[1-(4-Amino-3-methyl-1H-pyrazolo[3,4-d]pyrimidin-1-yl)ethyl]-5-chloro-2-methoxy-6-methylphenyl}morpholin-3-one], the IC50 is at most 0.01 µM.
Consider `COc1c(C(C)n2nc(C)c3c(N)ncnc32)cc(Cl)c(C)c1C1CN(C(C)C)C1` (single isomer, unassigned) [Example 1, 1-{1-[5-Chloro-3-(1-isopropylazetidin-3-yl)-2-methoxy-4-methylphenyl]ethyl}-3-methyl-1H-pyrazolo[3,4-d]pyrimidin-4-amine bis(trifluoroacetate)], for which the IC50 was at most 0.01 µM.
In the case of `COc1c(C(C)n2nc(C)c3c(N)ncnc32)cc(Cl)c(C)c1-c1ccc(C(=O)N(C)C)c(F)c1` (single isomer, unassigned) [Example 21, 3′-[1-(4-Amino-3-methyl-1H-pyrazolo[3,4-d]pyrimidin-1-yl)ethyl]-5′-chloro-3-fluoro-2′-methoxy-N,N,6′-trimethylbiphenyl-4-carboxamide trifluoroacetate], the IC50 was at most 0.01 µM.
Regarding `CNC(=O)c1ccc(-c2c(C)c(Cl)cc(C(C)n3nc(C)c4c(N)ncnc43)c2OC)cc1F` (single isomer, unassigned) [Example 22, 3′-[1-(4-Amino-3-methyl-1H-pyrazolo[3,4-d]pyrimidin-1-yl)ethyl]-5′-chloro-3-fluoro-2′-methoxy-N,6′-dimethylbiphenyl-4-carboxamide trifluoroacetate], the 50% inhibitory concentration (IC50) was at most 0.01 µM.
Turning to `COc1c(C(C)n2nc(C)c3c(N)ncnc32)cc(Cl)c(C)c1C1CN(C(=O)C2CC2)C1` (single isomer, unassigned) [Example 119, 1-(1-{5-Chloro-3-[1-(cyclopropylcarbonyl)azetidin-3-yl]-2-methoxy-4-methylphenyl}ethyl)-3-methyl-1H-pyrazolo[3,4-d]pyrimidin-4-amine], the IC50 was at most 0.01 µM.
For `COc1c(C(C)n2nc(C)c3c(N)ncnc32)cc(Cl)c(C)c1C1CN(C(=O)c2cnoc2C)C1` (single isomer, unassigned) [Example 120, 1-[1-(5-Chloro-2-methoxy-4-methyl-3-{1-[(5-methylisoxazol-4-yl)carbonyl]azetidin-3-yl}phenyl)ethyl]-3-methyl-1H-pyrazolo[3,4-d]pyrimidin-4-amine], the 50% inhibitory concentration (IC50) was at most 0.01 µM.
As for `COc1c(C(C)n2nc(C)c3c(N)ncnc32)cc(Cl)c(C)c1C1CN(C(=O)C2(O)CC2)C1` (single isomer, unassigned) [Example 122, 1-[(3-{3-[1-(4-Amino-3-methyl-1H-pyrazolo[3,4-d]pyrimidin-1-yl)ethyl]-5-chloro-2-methoxy-6-methylphenyl}azetidin-1-yl)carbonyl]cyclopropanol], the IC50 was at most 0.01 µM.
For the compound `COc1c(C(C)n2nc(C)c3c(N)ncnc32)cc(Cl)c(C)c1C1CN(C(=O)C(C)(C)O)C1` (single isomer, unassigned) [Example 123, 1-(3-{3-[1-(4-Amino-3-methyl-1H-pyrazolo[3,4-d]pyrimidin-1-yl)ethyl]-5-chloro-2-methoxy-6-methylphenyl}azetidin-1-yl)-2-methyl-1-oxopropan-2-ol], the 50% inhibitory concentration (IC50) was at most 0.01 µM.
On to `COc1c(C(C)n2nc(C)c3c(N)ncnc32)cc(Cl)c(C)c1C1CN(C(=O)c2cn[nH]c2)C1` (single isomer, unassigned) [Example 124, 1-(1-{5-Chloro-2-methoxy-4-methyl-3-[1-(1H-pyrazol-4-ylcarbonyl)azetidin-3-yl]phenyl}ethyl)-3-methyl-1H-pyrazolo[3,4-d]pyrimidin-4-amine], for which the concentration for half-maximal inhibition (IC50) is at most 0.01 µM.
With `COc1c(C(C)n2nc(C)c3c(N)ncnc32)cc(Cl)c(C)c1-c1cncnc1` (single isomer, unassigned) [Example 168, 1-(1-(5-chloro-2-methoxy-4-methyl-3-(pyrimidin-5-yl)phenyl)ethyl)-3-methyl-1H-pyrazolo[3,4-d]pyrimidin-4-amine], the IC50 was at most 0.01 µM.

These data come from patent US9707233B2, “Heterocyclylamines as PI3K inhibitors” (Incyte Corporation, priority 2011, dated 2017).
